Biological target: SOS1:KRAS (G12C) interaction (Homo sapiens (Human), UniProt Q07889)
Experiment: SOS1 KRas(G12C) FRET Assay
Assay type: binding
Conditions: 0.5 nM His10-SOS1 (res. 564-1049), 2.5 nM GST-KRAS G12C (res. 1-169), 2 hrs at RT
In short: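 GST-KRAS G12C (res. 1-169) at 2.5 nM and His10-SOS1 (res. 564-1049) at 0.5 nM, final, in PBS with 0.1% BSA, 5 mM MgCl2, 100 mM KF, 5 mM DTT and 0.5% DMSO. After 2 h at RT, FRET read at 665/615 nm and normalized to DMSO and no-SOS1 controls. IC50 by non-linear regression.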

SOS1:KRAS (G12C) interaction, sequence (Q07889 564-1049, stated change not applied): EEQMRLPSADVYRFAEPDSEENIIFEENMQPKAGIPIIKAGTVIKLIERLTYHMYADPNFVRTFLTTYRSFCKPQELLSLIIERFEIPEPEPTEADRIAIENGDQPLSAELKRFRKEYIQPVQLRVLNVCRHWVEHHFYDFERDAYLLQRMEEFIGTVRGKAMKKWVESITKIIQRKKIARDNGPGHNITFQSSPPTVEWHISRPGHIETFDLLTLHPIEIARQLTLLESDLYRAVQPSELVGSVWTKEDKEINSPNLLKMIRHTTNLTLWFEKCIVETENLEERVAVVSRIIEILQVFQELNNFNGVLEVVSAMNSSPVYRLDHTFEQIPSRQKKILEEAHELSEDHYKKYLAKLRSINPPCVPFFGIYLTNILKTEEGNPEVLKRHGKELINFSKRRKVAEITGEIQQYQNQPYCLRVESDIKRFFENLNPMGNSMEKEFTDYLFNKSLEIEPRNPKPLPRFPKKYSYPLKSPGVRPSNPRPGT

Structure (SMILES) | IC50 [µM]
C[C@@H](NC(=O)c1cn(C2(C(F)F)CC2)c(=O)cc1N[C@@H]1CCN(C)C[C@@H]1F)c1cccc(C(F)F)c1F (single isomer, unassigned) [Example 67] | 0.0106
C[C@@H](NC(=O)c1cn([C@H]2C[C@@H]2C2CC2)c(=O)cc1NC1CCN(C)CC1)c1cccc(C(F)F)c1F (single isomer, unassigned) [Example 73] | 0.013
CC(=O)N1CCC(C)(n2cc(C(=O)N[C@H](C)c3cccc(C(F)F)c3F)c(NC3CCN(C)CC3)cc2=O)C1 (stereo partly drawn) [Example 264, 1-(1-acetyl-3-methylpyrrolidin-3-yl)-N-((R)-1-(3-(difluoromethyl)-2-fluorophenyl)ethyl)-4-((1-methylpiperidin-4-yl)amino)-6-oxo-1,6-dihydropyridine-3-carboxamide] | 0.0022
Cc1c(C#N)cccc1[C@@H](C)NC(=O)c1cn([C@@H]2[C@@H](C)C2(F)F)c(=O)cc1N[C@H]1[C@@H]2CN(C)C[C@@H]21 (single isomer, unassigned) [Example 193] | 0.151
C[C@@H](NC(=O)c1cn([C@H]2CCC2(F)F)c(=O)cc1N[C@H]1[C@@H]2CC[C@H]1CN(C)C2)c1cccc(C(F)F)c1F [Example 210, 1-((S)-2,2-difluorocyclobutyl)-N-((R)-1-(3-(difluoromethyl)-2-fluorophenyl)ethyl)-4-(((1R,5S,8r)-3-methyl-3-azabicyclo[3.2.1]octan-8-yl)amino)-6-oxo-1,6-dihydropyridine-3-carboxamide] | 0.0043
C[C@@H](NC(=O)c1cn(C2(C(F)F)CC2)c(=O)cc1N[C@@H]1CCN(C)C2(CC2)C1)c1cccc(C(F)F)c1F (single isomer, unassigned) [Example 312] | 0.0356
CC(C)N1C[C@@H]2[C@H](C1)[C@H]2Nc1cc(=O)n(C2(C(F)F)CC2)cc1C(=O)N[C@H](C)c1cccc(C(F)F)c1F [Example 59, N-((R)-1-(3-(difluoromethyl)-2-fluorophenyl)ethyl)-1-(1-(difluoromethyl)cyclopropyl)-4-(((1R,5S,6s)-3-isopropyl-3-azabicyclo[3.1.0]hexan-6-yl)amino)-6-oxo-1,6-dihydropyridine-3-carboxamide] | 0.0315
C[C@@H](NC(=O)c1cn(C23CC(C2)C3)c(=O)cc1NC12CC(N)(C1)C2)c1cccc(C(F)F)c1F [Example 189, (R)-4-((3-aminobicyclo[1.1.1]pentan-1-yl)amino)-1-(bicyclo[1.1.1]pentan-1-yl)-N-(1-(3-(difluoromethyl)-2-fluorophenyl)ethyl)-6-oxo-1,6-dihydropyridine-3-carboxamide] | 0.0163
C[C@@H](NC(=O)c1cn([C@@]2(C(F)(F)F)CCOC2)c(=O)cc1N[C@H]1[C@@H]2CN(C)C[C@@H]21)c1cccc(C(F)F)c1F (single isomer, unassigned) [Example 234] | 0.0092
Cc1c([C@@H](C)NC(=O)c2cn(C3CCOCC3)c(=O)cc2NC2CNC2)cccc1C(F)(F)F [Example 43, (R)-4-(azetidin-3-ylamino)-N-(1-(2-methyl-3-(trifluoromethyl)phenyl)ethyl)-6-oxo-1-(tetrahydro-2H-pyran-4-yl)-1,6-dihydropyridine-3-carboxamide] | 0.0757
C[C@@H](NC(=O)c1cn(C2(CF)CC2)c(=O)cc1N[C@H]1[C@@H]2CC[C@H]1CN(C)C2)c1cccc(C(F)F)c1F (single isomer, unassigned) [Example 260] | 0.0124
C[C@@H](NC(=O)c1cn(C23CC(C2)C3)c(=O)cc1N)c1cccc(C(F)F)c1F [Example 190, (R)-4-amino-1-(bicyclo[1.1.1]pentan-1-yl)-N-(1-(3-(difluoromethyl)-2-fluorophenyl)ethyl)-6-oxo-1,6-dihydropyridine-3-carboxamide] | 0.315
C[C@@H](NC(=O)c1cn([C@H]2[C@H](C)C2(F)F)c(=O)cc1N[C@H]1[C@@H]2CN(C)C[C@@H]21)c1cccc(C(F)(F)F)c1F (single isomer, unassigned) [Example 198] | 0.00341
Cc1c([C@@H](C)NC(=O)c2cn(C3CCOCC3)c(=O)cc2N[C@@H]2CCCN(C)CC2)cccc1C(F)(F)F (single isomer, unassigned) [Example 34] | 0.0229
Cc1c([C@@H](C)NC(=O)c2cn(C3CCOCC3)c(=O)cc2N[C@@H]2CC[C@]23CCCN(C)C3)cccc1C(F)(F)F (single isomer, unassigned) [Example 297] | 0.0334
C[C@@H](NC(=O)c1cn(C23CC(C2)C3)c(=O)cc1N[C@@H]1C[C@@H]2CN(C)C[C@@H]2C1)c1cccc(C(F)F)c1F [Example 216, 1-(bicyclo[1.1.1]pentan-1-yl)-N-((R)-1-(3-(difluoromethyl)-2-fluorophenyl)ethyl)-4-(((3aR,5r,6aS)-2-methyloctahydrocyclopenta[c]pyrrol-5-yl)amino)-6-oxo-1,6-dihydropyridine-3-carboxamide] | 0.0191
C[C@@H](NC(=O)c1cn(C2(C(F)F)CC2)c(=O)cc1N[C@]12C[C@H]1CN(C)C2)c1cccc(C(F)F)c1F [Example 227, N-((R)-1-(3-(difluoromethyl)-2-fluorophenyl)ethyl)-1-(1-(difluoromethyl)cyclopropyl)-4-(((1R,5S)-3-methyl-3-azabicyclo[3.1.0]hexan-1-yl)amino)-6-oxo-1,6-dihydropyridine-3-carboxamide] | 0.0619
C[C@@H](NC(=O)c1cn([C@H]2CCOC(C)(C)C2)c(=O)cc1N[C@H]1[C@@H]2CN(C)C[C@@H]21)c1cccc(C(F)F)c1F [Example 310, N-((R)-1-(3-(difluoromethyl)-2-fluorophenyl)ethyl)-1-((S)-2,2-dimethyltetrahydro-2H-pyran-4-yl)-4-(((1R,5S,6s)-3-methyl-3-azabicyclo[3.1.0]hexan-6-yl)amino)-6-oxo-1,6-dihydropyridine-3-carboxamide] | 0.0372
C[C@@H](NC(=O)c1cn([C@@H]2CC2(F)F)c(=O)cc1N[C@H]1[C@@H]2CN(C)C[C@@H]21)c1cccc(C(C)(F)F)c1F (single isomer, unassigned) [Example 201] | 0.014
C[C@@H](NC(=O)c1cn([C@]2(C(F)(F)F)CCOC2)c(=O)cc1NC1CCN(C)CC1)c1cccc(C(F)F)c1F [Example 233, N-((R)-1-(3-(difluoromethyl)-2-fluorophenyl)ethyl)-4-((1-methylpiperidin-4-yl)amino)-6-oxo-1-((R)-3-(trifluoromethyl)tetrahydrofuran-3-yl)-1,6-dihydropyridine-3-carboxamide] | 0.0048
Cc1c([C@@H](C)NC(=O)c2cn(C3CCOCC3)c(=O)cc2N[C@@H]2CCCCN(C)C2)cccc1C(F)(F)F [Example 36, N-((R)-1-(2-methyl-3-(trifluoromethyl)phenyl)ethyl)-4-(((R)-1-methylazepan-3-yl)amino)-6-oxo-1-(tetrahydro-2H-pyran-4-yl)-1,6-dihydropyridine-3-carboxamide] | 0.0308
C[C@@H](NC(=O)c1cn([C@@H]2CCOC(C)(C)C2)c(=O)cc1NC1CCN(C)CC1)c1cccc(C(F)F)c1F (single isomer, unassigned) [Example 307] | 0.0049
CC(NC(=O)c1cn(C2(C(F)F)CC2)c(=O)cc1NC1CCN(C)CC1)c1ccc(C2CC2)c(C(F)(F)F)c1 (stereo not drawn) [Example 169, N-(1-(4-cyclopropyl-3-(trifluoromethyl)phenyl)ethyl)-1-(1-(difluoromethyl)cyclopropyl)-4-((1-methylpiperidin-4-yl)amino)-6-oxo-1,6-dihydropyridine-3-carboxamide] | 5.9
C[C@@H](NC(=O)c1cn(C2CC(F)(F)C2)c(=O)cc1N[C@H]1[C@@H]2CC[C@H]1CN(C)C2)c1cccc(C(F)F)c1F (single isomer, unassigned) [Example 258] | 0.0763
C[C@@H](NC(=O)c1cn(C2(CF)CC2)c(=O)cc1NC1CCN(C)CC1)c1cccc(C(F)F)c1F [Example 77, (R)-N-(1-(3-(difluoromethyl)-2-fluorophenyl)ethyl)-1-(1-(fluoromethyl)cyclopropyl)-4-((1-methylpiperidin-4-yl)amino)-6-oxo-1,6-dihydropyridine-3-carboxamide] | 0.0137
Cc1c([C@@H](C)NC(=O)c2cn(C3CCOCC3)c(=O)cc2NCC2(F)CN(C)C2)cccc1C(F)(F)F [Example 30, (R)-4-(((3-fluoro-1-methylazetidin-3-yl)methyl)amino)-N-(1-(2-methyl-3-(trifluoromethyl)phenyl)ethyl)-6-oxo-1-(tetrahydro-2H-pyran-4-yl)-1,6-dihydropyridine-3-carboxamide] | 0.0363
C[C@@H](NC(=O)c1cn(C2(C(F)F)CCC2)c(=O)cc1NC1CCN(C)CC1)c1cccc(C(F)F)c1F [Example 76, (R)-N-(1-(3-(difluoromethyl)-2-fluorophenyl)ethyl)-1-(1-(difluoromethyl)cyclobutyl)-4-((1-methylpiperidin-4-yl)amino)-6-oxo-1,6-dihydropyridine-3-carboxamide] | 0.0125
C[C@@H](NC(=O)c1cn(C2CCC2)c(=O)cc1N[C@H]1[C@@H]2CN(C)C[C@@H]21)c1cccc(C(F)F)c1F [Example 150, 1-cyclobutyl-N-((R)-1-(3-(difluoromethyl)-2-fluorophenyl)ethyl)-4-(((1R,5S,6s)-3-methyl-3-azabicyclo[3.1.0]hexan-6-yl)amino)-6-oxo-1,6-dihydropyridine-3-carboxamide] | 0.0123
C[C@@H](NC(=O)c1cn(C2(C(F)F)CC2)c(=O)cc1N[C@H]1CCNC2(CC2)C1)c1cccc(C(F)F)c1F (single isomer, unassigned) [Example 277] | 0.00946
C[C@@H](NC(=O)c1cn([C@]23COC[C@H]2C3)c(=O)cc1N[C@H]1[C@@H]2CN(C)C[C@@H]21)c1cccc(C(C)(F)F)c1F [Example 289, 1-((1S,5S)-3-oxabicyclo[3.1.0]hexan-1-yl)-N-((R)-1-(3-(1,1-difluoroethyl)-2-fluorophenyl)ethyl)-4-(((1R,5S,6s)-3-methyl-3-azabicyclo[3.1.0]hexan-6-yl)amino)-6-oxo-1,6-dihydropyridine-3-carboxamide] | 0.0133

— patent US20230348424A1, “HETEROCYCLIC COMPOUNDS AND METHODS OF USE” (Schrödinger, Inc., priority 2022, published 2023)
